These results are taken from ChEMBL document CHEMBL1201862, “PubChem BioAssay data set” (2004).

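48-hour exposure; five concentrations; linearly interpolated endpoints. At the GI50, growth is halved.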 Activity calls are given as the source filed them. Rule as the data show it: active = GI50 up to about 1.1 µM and inactive = higher. A value given as a limit tells only on which side of the number the result lay.

Common to all, as to assay: NCI anticancer screen, dose series, 48 h
The test system of assay [1] is 786-0.
In assay [2] the test system is ACHN.
For assay [3], the system named is CCRF-CEM.
In assay [4] the test system is COLO 205.
Assay [5] relates to EKVX.
Assay [6] relates to HL-60.
For assay [7], the system named is HT-29.
Assay [8] concerns K562.
Assay [9] concerns M14.
Assay [10] deals with OVCAR-4.
Assay [11] has as its system OVCAR-8.
For assay [12], the system named is PC-3.
The subject of assay [13] is SF-268.
In assay [14] the test system is SK-OV-3.
Assay [15] deals with SR.
For assay [16], the system named is U-251.
In assay [17] the test system is UO-31.
Assay [18] has as its system NCI/ADR-RES.
The test system of assay [19] is UACC-62.

`COC1=CC(=O)C(O)=C(C[C@@]2(C)[C@@H]3CCC[C@H](COC(=O)CCCCCNC(=O)OC(C)(C)C)[C@@]3(C)CC[C@@H]2C)C1=O`: the GI50 in assay [1] is > 10 µM (inactive); in [2], 3.32 µM (inactive); in [3] it was 1.09 µM (active); in assay [4], 4.08 µM (inactive); in assay [5], 8.28 µM (inactive); in assay [6] it was 3.04 µM (inactive). The GI50 was 5.12 µM (inactive) in assay [7]; 3.86 µM (inactive) in assay [8]; 6.56 µM (inactive) in assay [9]; > 10 µM (inactive) in [10]; 6.73 µM (inactive) in [11]; > 10 µM (inactive) in [12]. Also, the GI50 was 5.85 µM (inactive) in assay [13]; > 10 µM (inactive) in [14]; 5.22 µM (inactive) in [15]; 3.9 µM (inactive) in [16]; 6.47 µM (inactive) in assay [17].

For `OC1OC(c2ccco2)C(F)(F)C(F)(F)C1(F)F` (stereo not given), the GI50 is > 100 µM (inactive) in [1]; > 100 µM (inactive) in [2]; 21.9 µM (inactive) in [3]; 82.6 µM (inactive) in assay [4]; 81.7 µM (inactive) in assay [5]; 34.4 µM (inactive) in assay [6]. Besides, the GI50 was 23.3 µM (inactive) in [7]; > 100 µM (inactive) in assay [8]; > 100 µM (inactive) in [9]; 61.5 µM (inactive) in [18]; 43.2 µM (inactive) in assay [10]; > 100 µM (inactive) in assay [11]. For the same compound, the GI50 in assay [12] is > 100 µM (inactive); in assay [13], 71.3 µM (inactive); in [14], > 100 µM (inactive); in [16], > 100 µM (inactive); in assay [19] it was > 100 µM (inactive); in assay [17] it was 59.6 µM (inactive).

As for `N#CCCN(CCC#N)c1ccc(/C=C2\N=C(c3ccccc3)N(NC(N)=S)C2=O)cc1`, the GI50 in assay [1], in [2], in [3], in assay [4], in assay [5] and in [6] was > 100 µM (inactive) each time. Further, the GI50 in [7], in [8], in assay [9], in assay [18], in [10] and in [11] was > 100 µM (inactive) each time. Further, the GI50 in assay [12], in assay [13], in [14], in assay [16], in [19] and in assay [17] was > 100 µM (inactive) in each case.

With `O=C(CC(C(=O)c1ccsc1)c1ccccc1)c1cccs1` (stereo not given), the GI50 in [1] was > 100 µM (inactive); in [2], 67.6 µM (inactive); in assay [3], 80.5 µM (inactive); in [4], > 100 µM (inactive); in assay [5] it was > 100 µM (inactive); in assay [6], 41.1 µM (inactive). Moreover, the GI50 is 69.2 µM (inactive) in assay [7]; > 100 µM (inactive) in [8]; 24.8 µM (inactive) in assay [9]; 22.5 µM (inactive) in [18]; 55 µM (inactive) in assay [10]; 58.1 µM (inactive) in [11]. For the same compound, the GI50 in [13] is > 100 µM (inactive); in [14], > 100 µM (inactive); in assay [15], 57.4 µM (inactive); in assay [16], 62.2 µM (inactive); in assay [19], 24.8 µM (inactive); in assay [17], 19.6 µM (inactive).

For `Cc1cc(=O)oc2cc(OCc3c(F)cccc3Cl)ccc12`, the GI50 in assay [1] was 11.6 µM (inactive); in assay [2] it was 79.8 µM (inactive); in [6] it was 3.76 µM (inactive); in assay [9], 9.35 µM (inactive); in assay [10] it was 48.4 µM (inactive); in [11], > 100 µM (inactive). The GI50 in [12] is 3.56 µM (inactive); in [13], 21.4 µM (inactive); in assay [16] it was 8.85 µM (inactive); in assay [19] it was 1.12 µM (inactive); in assay [17], > 100 µM (inactive).

On to `CCCCNC(=S)N/C=C1\C(=O)Oc2ccccc2C1=O`, for which the GI50 in assay [1] was > 100 µM (inactive); in assay [2], 31.4 µM (inactive); in assay [4], > 100 µM (inactive); in assay [5] it was > 100 µM (inactive); in assay [6], 10 µM (inactive); in [7], > 100 µM (inactive). Besides, the GI50 was 76.6 µM (inactive) in [9]; > 100 µM (inactive) in assay [18]; 74.5 µM (inactive) in assay [10]; 42.4 µM (inactive) in [11]; 92.5 µM (inactive) in assay [12]; > 100 µM (inactive) in assay [14]. The GI50 in assay [16] was 54 µM (inactive); in assay [17], 37.2 µM (inactive).

As to `CN(C)C(=S)N/N=C\C(=N/NC(=S)N(C)C)c1ccccc1`, the GI50 in assay [1] is 7.33 µM (inactive); in assay [2], 3.72 µM (inactive); in assay [4] it was 4.03 µM (inactive); in assay [5], 7.36 µM (inactive); in assay [7] it was 5.16 µM (inactive); in [8], 4.68 µM (inactive). The GI50 was 5.51 µM (inactive) in assay [9]; 2.98 µM (inactive) in [18]; 5.74 µM (inactive) in assay [10]; 4.82 µM (inactive) in assay [11]; 4.14 µM (inactive) in [13]; 12.3 µM (inactive) in assay [14]. Also, the GI50 is 3.96 µM (inactive) in assay [16], 8.41 µM (inactive) in assay [19] and 3.69 µM (inactive) in assay [17].

As for `O=C(/N=N/c1ccc(Cl)cc1Cl)NNc1ccc(Cl)cc1Cl`, the GI50 in assay [1] is 15.3 µM (inactive); in assay [2], 16.6 µM (inactive); in [3], 20.2 µM (inactive); in assay [6], 20.7 µM (inactive); in [7], 37.2 µM (inactive); in assay [8], 20.8 µM (inactive). The GI50 in assay [9] was > 10 µM (inactive); in assay [10], 13.3 µM (inactive); in assay [11] it was 17.7 µM (inactive); in assay [12], 12.2 µM (inactive); in assay [13] it was 30.1 µM (inactive); in [15], 23.2 µM (inactive). Also, the GI50 in assay [16] is 18.5 µM (inactive); in [19], 13.9 µM (inactive); in assay [17], 12 µM (inactive).

Turning to `O=C(O)C1OC1C(=O)O` (stereo not given), the GI50 in assay [1], in assay [2], in [4], in [5], in assay [7] and in assay [8] was > 100 µM (inactive) each time. Also, the GI50 in assay [9], in assay [18], in assay [10], in assay [11], in assay [13] and in assay [14] was > 100 µM (inactive) throughout. Also, the GI50 in [15], in assay [16], in [19] and in assay [17] was > 100 µM (inactive) throughout.

`[BH3-][P+]1(CC[P@@+]([BH3-])(c2ccccc2)c2ccccc2OC)[C@@H](C)[C@@H](O)[C@H](O)[C@@H]1C` (stereo not given in full): the GI50 was 27.2 µM (inactive) in assay [1]; 17.6 µM (inactive) in [2]; 24.2 µM (inactive) in [3]; 17.8 µM (inactive) in assay [4]; 12.4 µM (inactive) in assay [5]; 23.2 µM (inactive) in [6]. Moreover, the GI50 is 22.6 µM (inactive) in assay [7]; 26.1 µM (inactive) in [8]; 16.7 µM (inactive) in assay [9]; 16.5 µM (inactive) in assay [18]; 16.8 µM (inactive) in assay [10]; 17.5 µM (inactive) in assay [11]. Further, the GI50 was 15 µM (inactive) in assay [12]; 17.2 µM (inactive) in assay [13]; 22.8 µM (inactive) in assay [14]; 16.9 µM (inactive) in assay [16]; 14.8 µM (inactive) in assay [19]; 10.1 µM (inactive) in assay [17].

`C/C=C/C1OC(O)(C(C)C(O)[C@H](C)C2OC(=O)/C(OC)=C/C(C)=C/[C@@H](C)[C@@H](O)[C@@H](C)C(O)C(C)C/C(C)=C/C=C/C2OC)C[C@@H](OC2CC(O)C(OC(N)=O)C(C)O2)C1C` (stereo not given in full): the GI50 in assay [1], in [2], in [3], in [4], in [5] and in assay [6] was < 0.01 µM (active) throughout. Also, the GI50 is < 0.01 µM (active) in assay [7]; < 0.01 µM (active) in [8]; < 0.01 µM (active) in [9]; < 0.0127 µM (active) in [18]; 3.04 µM (inactive) in assay [10]; < 0.01 µM (active) in assay [11]. The GI50 in [12] is < 0.01 µM (active); in assay [13], < 0.01 µM (active); in assay [14] it was 2.47 µM (inactive); in [16], < 0.0167 µM (active); in assay [19], < 0.01 µM (active); in assay [17] it was < 0.01 µM (active).

Turning to `Nc1nc(Cl)cc(Nc2cc(Cl)cc(Cl)c2)n1`, the GI50 in assay [1] was 17.4 µM (inactive); in assay [2] it was 24.9 µM (inactive); in assay [3] it was 28.5 µM (inactive); in assay [4] it was 22.4 µM (inactive); in assay [5] it was 21.3 µM (inactive); in assay [7], 17 µM (inactive). For the same compound, the GI50 in [8] is 30.8 µM (inactive); in assay [9], 19.3 µM (inactive); in assay [18] it was 21 µM (inactive); in assay [10] it was 21.7 µM (inactive); in assay [11] it was 14.2 µM (inactive); in assay [12], 19.7 µM (inactive). Further, the GI50 was 20.8 µM (inactive) in assay [13]; 19.5 µM (inactive) in [14]; 21.2 µM (inactive) in assay [16]; 18.4 µM (inactive) in [19]; 19.6 µM (inactive) in assay [17].
